Assay results taken from the supplement of paper PMC10307832.

What was measured:
Assay in all cases: relative viability (nuclei count vs DMSO), 5 days (fraction); higher = more cells survive
IU1-47 + Foretinib = compound: CC1=CC(=C(N1C2=CC=C(C=C2)Cl)C)C(=O)CN3CCCCC3 [IU1-47] + COc1cc2c(Oc3ccc(NC(=O)C4(C(=O)Nc5ccc(F)cc5)CC4)cc3F)ccnc2cc1OCCCN1CCOCC1 [Foretinib] (partner 0.25 µM)
Summary of the method: (§1)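 Each reported value is a median over duplicate plates. It expresses relative viability: treated-well nuclei count divided by vehicle-well nuclei count. Lung cancer cell lines in 1536-well plates were dosed by pin tool a day after seeding, alone with one drug or with a fixed anchor-drug dose plus five library-drug doses (not always all listed) in √10 steps, and nuclei were counted after 5 days.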

IU1-47 + Pictilisib = compound: CC1=CC(=C(N1C2=CC=C(C=C2)Cl)C)C(=O)CN3CCCCC3 [IU1-47] + CS(=O)(=O)N1CCN(Cc2cc3nc(-c4cccc5[nH]ncc45)nc(N4CCOCC4)c3s2)CC1 [Pictilisib] (partner 1 µM)
Summary of the method: as §1

FG-4592 + Tozasertib = compound: Cc1nc(C(=O)NCC(=O)O)c(O)c2ccc(Oc3ccccc3)cc12 [FG-4592] + Cc1cc(Nc2cc(N3CCN(C)CC3)nc(Sc3ccc(NC(=O)C4CC4)cc3)n2)n[nH]1 [Tozasertib] (partner 0.1 µM)
Summary of the method: as §1

FG-4592 + Olaparib = compound: Cc1nc(C(=O)NCC(=O)O)c(O)c2ccc(Oc3ccccc3)cc12 [FG-4592] + O=C(c1cc(Cc2n[nH]c(=O)c3ccccc23)ccc1F)N1CCN(C(=O)C2CC2)CC1 [Olaparib] (partner 8 µM)
Summary of the method: as §1

Cell Line | relative viability (IU1-47 + Foretinib; first compound 0.08 µM) | relative viability (IU1-47 + Foretinib; first compound 0.253 µM) | relative viability (IU1-47 + Foretinib; first compound 0.8 µM) | relative viability (IU1-47 + Foretinib; first compound 8 µM) | relative viability (IU1-47 + Pictilisib; first compound 0.08 µM) | relative viability (IU1-47 + Pictilisib; first compound 0.253 µM) | relative viability (IU1-47 + Pictilisib; first compound 0.8 µM) | relative viability (IU1-47 + Pictilisib; first compound 8 µM) | relative viability (FG-4592 + Tozasertib; first compound 0.08 µM) | relative viability (FG-4592 + Tozasertib; first compound 0.253 µM) | relative viability (FG-4592 + Tozasertib; first compound 0.8 µM) | relative viability (FG-4592 + Tozasertib; first compound 2.53 µM) | relative viability (FG-4592 + Tozasertib; first compound 8 µM) | relative viability (FG-4592 + Olaparib; first compound 0.08 µM) | relative viability (FG-4592 + Olaparib; first compound 0.253 µM) | relative viability (FG-4592 + Olaparib; first compound 0.8 µM) | relative viability (FG-4592 + Olaparib; first compound 2.53 µM) | relative viability (FG-4592 + Olaparib; first compound 8 µM) | relative viability (IU1-47 + Foretinib; first compound 2.53 µM) | relative viability (IU1-47 + Pictilisib; first compound 2.53 µM)
NCI-H1734 | 0.89 | 0.888 | 0.844 | 0.765 | 0.463 | 0.442 | 0.464 | 0.427 | 0.284 | 0.267 | 0.256 | 0.252 | 0.217 | 0.597 | 0.61 | 0.664 | 0.68 | 0.605 |  | 
HOP-62 | 1.17 | 1.12 | 1.04 | 1.13 | 0.966 | 0.891 | 0.818 | 0.524 | 0.406 | 0.393 | 0.381 | 0.367 | 0.41 | 0.373 | 0.561 | 0.496 | 0.383 | 0.338 | 1.11 | 0.494
LOU-NH91 | 0.988 | 1 | 0.903 | 0.966 | 0.502 | 0.529 | 0.429 | 0.51 | 0.709 | 0.669 | 0.696 | 0.634 | 0.717 | 0.93 | 0.85 | 0.902 | 0.959 | 0.953 | 0.891 | 0.512
ChaGo-K-1 | 0.967 | 0.934 | 0.954 | 0.81 | 0.753 | 0.758 | 0.62 | 0.43 | 0.241 | 0.219 | 0.224 | 0.237 | 0.208 | 0.44 | 0.399 | 0.4 | 0.461 | 0.456 | 0.979 | 0.457
NCI-H2228 | 1.14 | 1.05 | 0.975 | 0.75 | 0.497 | 0.506 | 0.28 | 0.229 | 0.276 | 0.262 | 0.226 | 0.288 | 0.225 | 0.386 | 0.697 | 0.794 | 0.517 | 0.693 | 0.827 | 0.28
PC-14 | 1.07 | 1.03 | 0.954 | 0.907 | 0.896 | 0.706 | 0.673 | 0.437 | 0.674 | 0.55 | 0.651 | 0.596 | 0.682 | 0.268 | 0.289 | 0.258 | 0.248 | 0.302 | 0.959 | 0.82
NCI-H1437 | 1.31 | 1.29 | 1.28 | 1.2 | 0.403 | 0.428 | 0.423 | 0.35 | 0.397 | 0.384 | 0.458 | 0.375 | 0.33 | 0.581 | 0.602 | 0.679 | 0.651 | 0.6 | 1.22 | 0.413
NCI-H460 | 1.09 | 1.04 | 1.26 | 1.15 | 0.385 | 0.284 | 0.381 | 0.345 | 0.381 | 0.419 | 0.42 | 0.592 | 0.487 | 0.445 | 0.449 | 0.462 | 0.51 | 0.43 | 0.86 | 0.359
NCI-H1666 | 1.04 | 0.928 | 0.893 | 0.896 | 0.436 | 0.452 | 0.455 | 0.407 | 0.651 | 0.592 | 0.594 | 0.657 | 0.56 | 0.764 | 0.744 | 0.809 | 0.796 | 0.779 | 0.948 | 0.448
NCI-H1651 | 0.946 | 0.869 | 0.903 | 0.973 | 0.526 | 0.575 | 0.573 | 0.468 | 0.773 | 0.653 | 0.742 | 0.629 | 0.569 | 0.182 | 0.175 | 0.196 | 0.17 | 0.176 | 0.787 | 
NCI-H1755 | 0.932 | 0.926 | 0.961 | 0.934 | 0.433 | 0.419 | 0.503 | 0.318 | 0.56 | 0.51 | 0.568 | 0.678 | 0.655 | 0.873 | 0.837 | 0.762 | 0.907 | 0.799 | 0.973 | 0.334
NCI-H661 | 1.14 | 1.16 | 1.07 | 1.2 | 0.376 | 0.406 | 0.414 | 0.363 | 0.365 | 0.371 | 0.347 | 0.359 | 0.343 | 0.708 | 0.727 | 0.822 | 0.757 | 0.816 | 0.93 | 0.349
HARA | 1.02 | 1.1 | 1.04 | 0.742 | 0.407 | 0.504 | 0.371 | 0.336 | 0.12 | 0.138 | 0.0931 | 0.115 | 0.104 |  |  |  | 0.738 | 0.987 |  | 0.509
NCI-H596 | 0.893 | 0.82 | 0.806 | 0.761 | 0.393 | 0.367 | 0.405 | 0.393 | 0.975 | 0.916 | 0.867 | 0.893 | 0.682 | 0.663 | 0.641 |  | 0.708 | 0.625 | 0.87 | 0.429
NCI-H23 | 0.91 | 1.14 | 1.04 | 1.03 | 0.43 | 0.492 | 0.44 | 0.435 | 0.412 | 0.4 | 0.418 | 0.346 | 0.431 | 0.34 | 0.333 | 0.365 | 0.321 | 0.296 | 1.17 | 0.543
LCLC-97TM1 | 0.957 | 1.02 | 0.892 | 0.856 | 0.194 | 0.258 | 0.204 | 0.165 | 0.173 | 0.214 | 0.23 | 0.244 | 0.18 | 0.444 | 0.417 |  | 0.329 | 0.421 | 0.725 | 
